Test results from patent publication US10035759B2, “Method of chromatographic separation” (The Procter & Gamble Company, priority 2015, dated 2018).

Test system: human TRPM8
Assay: TRPM8 FLIPR assay: intracellular Ca2+ level in HEK-293 cells stably transfected with human TRPM8
Assay type: cell-based
Conditions: dose 30 uM
Protocol: TRPM8 activation was determined by measuring intracellular calcium ion (Ca^2+) level from transfected cells with the TRPM8 receptor gene, as described in CELL CULTURE PROTOCOL EXAMPLE, the results of which are shown in TABLES 2 and 3.
To determine what effect, if any, test compounds had on TRPM8 (SEQ ID NO: 1) activation the protocols listed below were used.
TRPM8 Protocol-FLIPR Assay
To determine whether TRPM8 is activated, the intracellular calcium ion (Ca^2+) level was measured from transfected cells with the TRPM8 receptor sequence (SEQ ID NO: 1). HEK-293 (human embryonic kidney) cells stably transfected with human TRPM8 were grown in 15 ml growth medium (high glucose DMEM (Dulbecco's Modification of Eagle's Medium) supplemented with 10% FBS (fetal bovine serum), 100 ug/ml penicillin/streptomycin, 5 μg/ml blasticindin, and 100 μg/ml zeocin) in a 75 cm^2 flask for 3 days at 37° C. in a mammalian cell culture incubator set at 5% CO2. Cells were detached with addition of 2 ml of trypsin-EDTA buffer (GIBCO® 25200, Invitrogen, Grand Island, N.Y.) for about 2-3 min. Trypsin was inactivated by addition of 8 ml growth medium. Cells were transferred to a 50 ml tube and centrifuged at 850 rpm for 3 minutes to remove medium. After centrifugation, a pellet of cells was formed in the bottom of the tube separating them from the supernatant solution. […] Fluo-4 AM is a fluorescent dye used for quantifying cellular Ca^2+ concentrations in the 100 nM to 1 microM range. […]
The pelleted cells were re-suspended in 10 ml assay buffer and 90 al aliquots (˜50,000 cells) per well delivered to a 96-well assay plate containing 10 al of test compounds (1 mM in assay buffer, […]) or buffer control and incubated at room temperature for 30 minutes. After 30 minutes, a plate was placed into a fluorometric imaging plate reader (FLIPR TETRA from Molecular Devices, Sunnyvale, Calif.) and basal fluorescence recorded (excitation wave length 488 nm and emission wave length 510 nm). Then 20 μl of 180 μM solution of TRPM8 agonist WS5 coolant was added to the assay buffer and the fluorescence signals were automatically recorded by FLIPR. For determining the direct effect of test compounds on TRPM8, fluorescence was measured immediately after addition of each compound (TABLES 2 and 3). Additional discussion of the FLIPR method can be found in Smart et al., Characterization using FLIPR of human vanilloid VR1 receptor pharmacology, European Journal of Pharmacology 417, 51-58 (2001) and Liu et al., Development and validation of a platelet calcium flux assay using a fluorescent imaging plate reader, Analytical Biochemistry 357, 216-224 (2006).

CCOC(=O)CNC(=O)C1CC(C)CCC1C(C)C (stereo not shown) [WS-5, N-ethoxycarbonylmethyl-ρ-menthan-3-carboxamide]
100.0%: 50 sec % of WS5 (50 sec) | 3 min % of WS5 (3 min) | 5 min % of WS5 (5 min) | 10 min % of WS5 (10 min)
